{"source": "patent US20070172957A1", "about": "“Methods of identifying anti-inflammatory macrolides” (TAISHO PHARMACEUTICAL CO., LTD., priority 2004, published 2007)", "system": "genes predictive for the anti-inflammatory macrolide effect", "experiment": "Genes statistically predictive of Clari response: differentially expressed with Clari but not the inactive macrolides MAA or Josa (Appendix E)", "type": "cell-based", "from_the_text": "In the case of the above-mentioned (i) related to arachidonic acid biosynthesis, specifically, methods of the embodiment involve assaying whether a test macrolide alters biosynthesis of arachidonic acid, alters the expression or activities of enzymes involved in the biosynthesis or activation of arachidonic acid (e.g., arachidonic acid CoA synthetase, delta-6 desaturase, fatty acid elongase, and delta-5 desaturase, AA-related genes in Tables 2 and 3), or alters the expression of genes identified as predictive for the anti-inflammatory macrolide effect (Appendix E). Assays in which arachidonic acid or gene expression or enzymatic activity is detected can be carried out after contacting a cell with a test macrolide. Any cell line that secretes prostaglandin or produces arachidonic acid can be used. Epithelial and macrophages lines (e.g., A549 or THP-1) are suitable for this purpose; other cell lines can be identified by carrying out assays such as those described in the specific Examples, below. Alternatively, screening assays can be carried out after adding a test macrolide to an in vitro cell system (e.g., a cellular extract or liver microsome preparation) or an in vitro enzyme assay system."}
{"smiles": "CO[C@@H]1[C@@H](O[C@@H]2O[C@H](C)[C@@H](O[C@H]3C[C@@](C)(O)[C@@H](OC(=O)CC(C)C)[C@H](C)O3)[C@H](N(C)C)[C@H]2O)[C@@H](CC=O)C[C@@H](C)[C@@H](O)/C=C/C=C/C[C@@H](C)OC(=O)C[C@H]1OC(C)=O", "note": "[josamycin]", "values": [{"measurement": "group mean, gene DDOST", "setting": "SpotID 49757, MAA and Josa vs. Clari", "result": 0.96}, {"measurement": "group mean, gene BCL2L2", "setting": "SpotID 49761, MAA and Josa vs. Clari", "result": 0.85}, {"measurement": "group mean, gene AD022", "setting": "SpotID 49767, MAA and Josa vs. Clari", "result": 0.96}, {"measurement": "mean group, AD022", "setting": "SpotID 49767, pooled group mean", "result": 0.96}, {"measurement": "group mean, gene P4HB", "setting": "SpotID 49781, MAA and Josa vs. Clari", "result": 0.98}, {"measurement": "group mean, gene CYC1", "setting": "SpotID 49787, MAA and Josa vs. Clari", "result": 1.09}, {"measurement": "mean group, CYC1", "setting": "SpotID 49787, pooled group mean", "result": 1.09}, {"measurement": "group mean, gene BCL2L2", "setting": "SpotID 49794, MAA and Josa vs. Clari", "result": 0.86}, {"measurement": "mean group, AD022", "setting": "SpotID 49800, pooled group mean", "result": 0.97}, {"measurement": "group mean, gene CDKN2C", "setting": "SpotID 49815, MAA and Josa vs. Clari", "result": 1.06}, {"measurement": "group mean, gene CYC1", "setting": "SpotID 49820, MAA and Josa vs. Clari", "result": 1.05}, {"measurement": "group mean, gene LAMP2", "setting": "SpotID 49882, MAA and Josa vs. Clari", "result": 0.99}, {"measurement": "group mean, gene ATP2B4", "setting": "SpotID 49915, MAA and Josa vs. Clari", "result": 1.23}, {"measurement": "mean group, ATP2B4", "setting": "SpotID 49915, pooled group mean", "result": 1.23}, {"measurement": "group mean, gene DHCR24", "setting": "SpotID 49922, MAA and Josa vs. Clari", "result": 1.00}, {"measurement": "group mean, gene KIAA0169", "setting": "SpotID 49930, MAA and Josa vs. Clari", "result": 1.03}, {"measurement": "mean group, RFC1", "setting": "SpotID 49947, pooled group mean", "result": 1.05}, {"measurement": "group mean, gene CCNE2", "setting": "SpotID 49967, MAA and Josa vs. Clari", "result": 1.02}, {"measurement": "group mean, gene BMP6", "setting": "SpotID 49981, MAA and Josa vs. Clari", "result": 0.94}, {"measurement": "group mean, gene VTN", "setting": "SpotID 49989, MAA and Josa vs. Clari", "result": 1.19}, {"measurement": "group mean, gene SRC", "setting": "SpotID 49990, MAA and Josa vs. Clari", "result": 0.99}, {"measurement": "group mean, gene NFYC", "setting": "SpotID 50011, MAA and Josa vs. Clari", "result": 1.10}, {"measurement": "mean group, HIF1A", "setting": "SpotID 50022, pooled group mean", "result": 1.07}, {"measurement": "group mean, gene GNB2L1", "setting": "SpotID 50049, MAA and Josa vs. Clari", "result": 1.32}, {"measurement": "mean group, NDUFA2", "setting": "SpotID 50050, pooled group mean", "result": 0.90}, {"measurement": "group mean, gene MBTPS1", "setting": "SpotID 50067, MAA and Josa vs. Clari", "result": 0.95}, {"measurement": "group mean, gene SCOP", "setting": "SpotID 50079, MAA and Josa vs. Clari", "result": 0.97}, {"measurement": "mean group, SCOP", "setting": "SpotID 50079, pooled group mean", "result": 0.97}, {"measurement": "group mean, gene IDI1", "setting": "SpotID 50084, MAA and Josa vs. Clari", "result": 0.90}, {"measurement": "group mean, SpotID 50085 (gene symbol not given)", "setting": "SpotID 50085, MAA and Josa vs. Clari", "result": 1.18}, {"measurement": "group mean, gene CNOT3", "setting": "SpotID 50099, MAA and Josa vs. Clari", "result": 0.95}, {"measurement": "mean group, CNOT3", "setting": "SpotID 50099, pooled group mean", "result": 0.95}, {"measurement": "group mean, gene IRF5", "setting": "SpotID 50103, MAA and Josa vs. Clari", "result": 0.87}, {"measurement": "group mean, gene RRBP1", "setting": "SpotID 50135, MAA and Josa vs. Clari", "result": 0.95}, {"measurement": "group mean, SpotID 50216 (gene symbol not given)", "setting": "SpotID 50216, MAA and Josa vs. Clari", "result": 0.95}, {"measurement": "group mean, gene FLJ13868", "setting": "SpotID 50222, MAA and Josa vs. Clari", "result": 0.93}, {"measurement": "group mean, gene HK2", "setting": "SpotID 50224, MAA and Josa vs. Clari", "result": 0.95}, {"measurement": "mean group, IL10RB", "setting": "SpotID 50267, pooled group mean", "result": 0.98}, {"measurement": "group mean, gene UQCR", "setting": "SpotID 50284, MAA and Josa vs. Clari", "result": 0.83}, {"measurement": "group mean, gene TM7SF2", "setting": "SpotID 50294, MAA and Josa vs. Clari", "result": 1.01}, {"measurement": "group mean, gene CDR2", "setting": "SpotID 50302, MAA and Josa vs. Clari", "result": 0.89}, {"measurement": "group mean, gene MAX", "setting": "SpotID 50307, MAA and Josa vs. Clari", "result": 0.96}, {"measurement": "group mean, gene BMP6", "setting": "SpotID 50319, MAA and Josa vs. Clari", "result": 0.98}, {"measurement": "group mean, gene DAD1", "setting": "SpotID 50332, MAA and Josa vs. Clari", "result": 1.02}, {"measurement": "group mean, gene FGFR2", "setting": "SpotID 50337, MAA and Josa vs. Clari", "result": 0.93}, {"measurement": "group mean, gene IKKE", "setting": "SpotID 50342, MAA and Josa vs. Clari", "result": 0.94}, {"measurement": "mean group, IKKE", "setting": "SpotID 50342, pooled group mean", "result": 0.94}, {"measurement": "group mean, gene LOC51295", "setting": "SpotID 50349, MAA and Josa vs. Clari", "result": 1.01}, {"measurement": "mean group, LOC51295", "setting": "SpotID 50349, pooled group mean", "result": 1.01}, {"measurement": "mean group, CFL1", "setting": "SpotID 50351, pooled group mean", "result": 1.16}, {"measurement": "group mean, gene TFAM", "setting": "SpotID 50386, MAA and Josa vs. Clari", "result": 1.05}, {"measurement": "group mean, gene DGCR6L", "setting": "SpotID 50399, MAA and Josa vs. Clari", "result": 1.02}, {"measurement": "group mean, gene CHERP", "setting": "SpotID 50405, MAA and Josa vs. Clari", "result": 1.00}, {"measurement": "group mean, gene AGPAT1", "setting": "SpotID 50412, MAA and Josa vs. Clari", "result": 0.99}, {"measurement": "mean group, GOCAP1", "setting": "SpotID 50421, pooled group mean", "result": 1.01}, {"measurement": "group mean, gene SIGIRR", "setting": "SpotID 50452, MAA and Josa vs. Clari", "result": 0.96}, {"measurement": "group mean, gene MMP15", "setting": "SpotID 50464, MAA and Josa vs. Clari", "result": 0.87}, {"measurement": "group mean, gene CEBPA", "setting": "SpotID 50474, MAA and Josa vs. Clari", "result": 0.97}, {"measurement": "mean group, MGP", "setting": "SpotID 50511, pooled group mean", "result": 0.83}, {"measurement": "group mean, gene ARHC", "setting": "SpotID 50513, MAA and Josa vs. Clari", "result": 0.91}, {"measurement": "mean group, ARHC", "setting": "SpotID 50513, pooled group mean", "result": 0.91}, {"measurement": "group mean, gene PRKCBP1", "setting": "SpotID 50532, MAA and Josa vs. Clari", "result": 1.07}, {"measurement": "group mean, gene PTPRT", "setting": "SpotID 50550, MAA and Josa vs. Clari", "result": 0.92}, {"measurement": "mean group, BN51T", "setting": "SpotID 50584, pooled group mean", "result": 0.97}, {"measurement": "mean group, CKS2", "setting": "SpotID 50590, pooled group mean", "result": 0.74}, {"measurement": "mean group, SpotID 50591", "setting": "SpotID 50591 (gene symbol not given), pooled group mean", "result": 1.01}, {"measurement": "group mean, SpotID 50591 (gene symbol not given)", "setting": "SpotID 50591, MAA and Josa vs. Clari", "result": 1.01}, {"measurement": "mean group, SRP19", "setting": "SpotID 50601, pooled group mean", "result": 0.95}, {"measurement": "group mean, gene PDIR", "setting": "SpotID 50639, MAA and Josa vs. Clari", "result": 0.91}, {"measurement": "group mean, gene PROS1", "setting": "SpotID 50643, MAA and Josa vs. Clari", "result": 0.93}, {"measurement": "mean group, BET1", "setting": "SpotID 50645, pooled group mean", "result": 0.84}, {"measurement": "group mean, gene COPB2", "setting": "SpotID 50654, MAA and Josa vs. Clari", "result": 0.99}, {"measurement": "group mean, gene MAX", "setting": "SpotID 50659, MAA and Josa vs. Clari", "result": 0.95}, {"measurement": "group mean, gene GNB5", "setting": "SpotID 50689, MAA and Josa vs. Clari", "result": 1.00}, {"measurement": "group mean, gene PRKDC", "setting": "SpotID 50736, MAA and Josa vs. Clari", "result": 1.07}, {"measurement": "mean group, PRKDC", "setting": "SpotID 50736, pooled group mean", "result": 1.07}, {"measurement": "group mean, gene AD022", "setting": "SpotID 50738, MAA and Josa vs. Clari", "result": 0.94}, {"measurement": "mean group, AD022", "setting": "SpotID 50738, pooled group mean", "result": 0.94}]}
